Key:
Plasmodium falciparum = test: Antimalarial activity against Plasmodium falciparum 3D7 infected in RBC cells assessed as inhibition of parasite growth incubated for 48 hrs by [3H]hypoxanthine incorporation assay; assay type: functional, organism-based
[1] = molecular target: T1, IMP-specific 5'-nucleotidase 1 (Plasmodium falciparum (isolate 3D7)) (UniProt A0A144A134); test: Binding affinity to recombinant Plasmodium falciparum 3D7 ISN1 assessed as change in melting temperature at 1 uM by differential scanning fluorimetry method
T1 sequence (whole entry): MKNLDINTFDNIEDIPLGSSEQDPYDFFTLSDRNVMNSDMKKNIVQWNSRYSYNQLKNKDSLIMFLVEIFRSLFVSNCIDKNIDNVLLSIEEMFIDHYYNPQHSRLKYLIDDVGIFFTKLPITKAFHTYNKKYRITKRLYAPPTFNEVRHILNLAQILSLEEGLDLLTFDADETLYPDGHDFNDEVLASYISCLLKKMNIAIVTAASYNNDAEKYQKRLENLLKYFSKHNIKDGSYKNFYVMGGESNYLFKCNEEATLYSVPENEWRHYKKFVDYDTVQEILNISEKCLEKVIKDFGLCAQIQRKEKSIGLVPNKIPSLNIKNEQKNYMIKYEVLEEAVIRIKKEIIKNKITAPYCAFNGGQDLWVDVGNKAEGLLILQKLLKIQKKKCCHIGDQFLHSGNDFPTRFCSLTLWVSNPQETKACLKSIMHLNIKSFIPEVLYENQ

[2] = molecular target: T1, IMP-specific 5'-nucleotidase 1 (Plasmodium falciparum (isolate 3D7)); test: Binding affinity to recombinant Plasmodium falciparum 3D7 ISN1 assessed as change in melting temperature at 10 uM by differential scanning fluorimetry method
[3] = molecular target: T1, IMP-specific 5'-nucleotidase 1 (Plasmodium falciparum (isolate 3D7)); test: Binding affinity to recombinant Plasmodium falciparum 3D7 ISN1 assessed as change in melting temperature at 100 uM by differential scanning fluorimetry method
[4] = molecular target: T2, IMP-specific 5'-nucleotidase 1 (Plasmodium falciparum (isolate 3D7), UniProt A0A144A134); test: Binding affinity to recombinant Plasmodium falciparum 3D7 ISN1 assessed as dissociation constant by thermophoresis analysis
T2 sequence (A0A144A134 whole entry): T1 sequence (whole entry)

[5] = Plasmodium falciparum, 3D7, Erythrocyte

Compound	IC50 (Plasmodium falciparum; [5]) [µM]	other results
Nc1nc2c(ncn2[C@H]2CC[C@@](O)(CP(=O)(O)O)C2)c(=O)[nH]1	–	IC50 (Plasmodium falciparum; rbc): 44 µM
Nc1nc2c(ncn2[C@H]2C=C[C@@](O)(CP(=O)(O)O)C2)c(=O)[nH]1 (racemic)	1	ΔTm [1]: -0.9 °C; ΔTm [2]: 1.1 °C; ΔTm [3]: 4.1 °C; Kd [4]: 19.5 µM
O=P(O)(O)C[C@]1(O)CC[C@H](n2cnc3c(NCc4ccccc4)nc(NCc4ccccc4)nc32)C1 (racemic)	41	–
COc1nc(N)c2ncn([C@H]3CC[C@@](O)(CP(=O)(O)O)C3)c2n1 (racemic)	2.2	–
Nc1nc2c(ncn2[C@H]2CC[C@@](O)(CP(=O)(O)O)C2)c(=O)[nH]1 (racemic) [listing 1 of 2 here]	–	ΔTm [1]: -2 °C; ΔTm [2]: -4.5 °C; ΔTm [3]: -5.2 °C
Nc1ncnc2c1ncn2[C@H]1CC[C@@](O)(/C=C/P(=O)(O)O)C1 (racemic)	> 100	–
Nc1nc2c(ncn2[C@@H]2CC(CP(=O)(O)O)=C[C@H]2O)c(=O)[nH]1 (racemic)	> 100	–
Nc1nc(NCc2ccccc2)c2ncn([C@H]3CC[C@@](O)(CP(=O)(O)O)C3)c2n1 (racemic)	79	–
Nc1nc2c(ncn2[C@H]2CC[C@](O)(CP(=O)(O)O)C2)c(=O)[nH]1	42	–
Nc1nc2c(ncn2[C@H]2CC[C@@](O)(CP(=O)(O)O)C2)c(=O)[nH]1 (racemic) [listing 2 of 2 here]	–	Kd [4]: 24.1 µM; IC50 (Plasmodium falciparum; rbc): 4.4 µM
Nc1nc(N)c2ncn([C@H]3CC[C@@](O)(CP(=O)(O)O)C3)c2n1 (racemic)	8.8	–
O=P(O)(O)C[C@]1(O)CC[C@H](n2cnc3c(NCc4ccccc4)nc(Cl)nc32)C1 (racemic)	68.3	–
COc1nc(Cl)nc2c1ncn2[C@H]1CC[C@@](O)(CP(=O)(O)O)C1 (racemic)	> 100	–
Nc1ncnc2c1ncn2[C@H]1CC[C@@](O)(CP(=O)(O)O)C1	14.7	–
Nc1ncnc2c1ncn2[C@@H]1CC(CP(=O)(O)O)=C[C@H]1O (racemic)	> 100	–
Nc1nc2c(ncn2[C@H]2CC[C@@](O)(/C=C/P(=O)(O)O)C2)c(=O)[nH]1 (racemic)	50	–
COC1NC(N)=Nc2c1ncn2[C@H]1CC[C@@](O)(CCP(=O)(O)O)C1 (mixture of isomers)	10.2	–
Nc1nc2c(ncn2[C@@H]2CC[C@@](O)(CP(=O)(O)O)C2)c(=O)[nH]1	> 100	–
Nc1nc2c(ncn2[C@H]2CC[C@@](O)(CCP(=O)(O)O)C2)c(=O)[nH]1 (racemic)	7	–
Nc1nc2c(ncn2[C@@H]2CC[C@](O)(CP(=O)(O)O)C2)c(=O)[nH]1	1.3	–
